Source: US9604925B2, “Class II HMG-CoA reductase inhibitors and methods of use” (Purdue Research Foundation, priority 2012, dated 2017)
In brackets after ≈: the same amount, converted by molar mass. Marks after values point to notes of the source that are not given here.

Experiments:
[1] = biological target: S. aureus HMGR (Staphylococcus aureus, UniProt Q9FD86); experiment: biochemical
[2] = test system: Staphylococcus aureus ATCC 6538 planktonic organisms (not in biofilm); experiment: MIC/MBC against planktonic S. aureus ATCC 6538; format: cell-based
[3] = test system: Staphylococcus aureus ATCC 6538 adherent organisms (biofilm); experiment: MIC/MBC in adherent-cell biofilm of S. aureus ATCC 6538; format: cell-based; conditions: for Adherent organisms (biofilm) MIC^b: S. aureus ATCC 6538, 20 h; for Adherent organisms (biofilm) MBC^b: S. aureus ATCC 6538, regrowth 20 h in antibiotic-free MHB
Protocol: An adherent biofilm for susceptibility testing was formed using a clinical isolate of Staphylococcus aureus (ATCC 6538). S. aureus biofilms were prepared in a tissue culture non-treated polystyrene 96-well plate (Corning) and washed with phosphate-buffered saline (PBS) to remove unbound bacteria. Subsequently, serial twofold dilutions of the compounds in MHB were added to wells containing adherent organisms. The polystyrene plates were incubated for 20 h at 37° C. The MIC was taken as the lowest drug concentration at which observable growth was inhibited.

[4] = test system: methicillin-resistant Staphylococcus aureus (MRSA) ATCC 43300; experiment: MIC/MBC micro dilution against MRSA; conditions: for MRSA MBC: MRSA ATCC 43300, MHB, 20 hours, Table 2; for MBC / MIC: Staphylococcus aureus; for MBC, μM: MRSA, Table 1
[5] = test system: J774A.1 cells; experiment: In vitro cell viability/cytotoxicity MTS assay; format: cell-based; conditions: 100 μM, 24 hours
Protocol: Cytotoxicity of the compounds was evaluated using J774A.1 cells (mitochondrial function) in the CellTiter 96® AQueous Non-Radioactive Cell Proliferation Assay (Promega). […] Formazan is measured by measuring the absorbance at 490 nm. Briefly, ˜2×10^4 J774A.1 cells suspended in 200 μL DMEM supplemented with 10% fetal bovine serum (FBS), L-glutamine, NaHCO3, pyridoxine-HCl, and […] glucose and preserved with 1% penicillin-streptomycin solution were seeded in 96-well plates and incubated at 37° C. in a 5% CO2 atmosphere. The cells were cultured for 24 hours (60% confluency) before the assays. The J774A.1 cells were further incubated with 100 μM of compounds (2f, […], 2j, and 2e) and DMSO as a control for 24 hours. The culture media was discarded, and the cells in each well were washed with PBS and re-suspended with 100 μL of cell culture media prior to addition of the assay reagent. The plates were incubated for 4 hours at 37° C. in a humidified 5% CO2 atmosphere. The absorbance at 490 nm was recorded using a 96-well Elisa plate reader (SoftMax ProInc., USA). Results were expressed as the percentage mean absorbance by cells upon incubation with various treatments (compounds 2f, 2j, 2i, and 2e) with respect to incubation with DMSO. The results are expressed as means from six measurements±SD.

[6] = test system: Candida albicans ATCC 18804; experiment: MIC/MFC against Candida albicans in YM broth; format: cell-based; conditions: yeast medium broth
Protocol: Antifungal activities of 22 HMG-CoA Reductase inhibitors were initially tested at 100 μM concentration against Candida albicans ATCC 18804.

[7] = test system: vancomycin resistant Enterococcus faecalis (VRE) ATCC 51299; experiment: MIC/MBC micro dilution against VRE; conditions: VRE ATCC 51299, MHB, 20 hours
[8] = test system: vancomycin intermediate Staphylococcus aureus (VISA) NRS1; experiment: MIC/MBC against clinical VISA isolate
[9] = test system: clinical methicillin-resistant Staphylococcus aureus (MRSA) isolates; experiment: MIC/MBC against clinical MRSA isolates
[10] = test system: C. elegans infected with VRE; experiment: Treatment of C. elegans infected with VRE; conditions: VRE-infected worms, 100 μM; for Log CFU/worm: 16 hours treatment; for Log Reduction: versus DMSO control
[11] = test system: C. elegans infected with MRSA; experiment: Treatment of C. elegans infected with MRSA; conditions: MRSA-infected worms, 100 μM; for Log CFU/worm: 16 hours treatment; for Log Reduction: versus DMSO control

S. aureus HMGR, sequence (Q9FD86 entry or part of it): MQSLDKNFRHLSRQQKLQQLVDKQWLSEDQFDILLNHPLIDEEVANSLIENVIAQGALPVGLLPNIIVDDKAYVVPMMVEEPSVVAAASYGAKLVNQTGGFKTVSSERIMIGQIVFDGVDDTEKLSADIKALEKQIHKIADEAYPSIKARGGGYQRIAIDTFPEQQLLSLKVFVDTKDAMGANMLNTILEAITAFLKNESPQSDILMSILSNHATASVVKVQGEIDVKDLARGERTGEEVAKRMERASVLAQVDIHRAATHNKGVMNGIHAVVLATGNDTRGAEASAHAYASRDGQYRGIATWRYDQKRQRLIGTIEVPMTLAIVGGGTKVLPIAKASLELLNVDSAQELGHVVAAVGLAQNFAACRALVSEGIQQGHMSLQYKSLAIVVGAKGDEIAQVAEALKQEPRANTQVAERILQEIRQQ

CCc1ccc(NS(=O)(=O)c2ccc(O)c(C(=O)O)c2)cc1 [Compound 2a, 5-[N-(4-ethylphenyl)sulfamoyl]-2-hydroxybenzoic acid] was tested, and the “IC50, μM” value [1] was “^d (No significant inhibition of HMGR activity was observed at the concentrations tested.)”.

CCCc1ccc(NS(=O)(=O)c2ccc(O)c(C(=O)O)c2)cc1 [Compound 2b, 2-hydroxy-5-[N-(4-propylphenyl)sulfamoyl]benzoic acid] was tested, and the “IC50, μM” value [1] was “^d (No significant inhibition of HMGR activity was observed at the concentrations tested.)”.

Compound CCCCCc1ccc(NS(=O)(=O)c2ccc(O)c(C(=O)O)c2)cc1 [Compound 2c, 2-hydroxy-5-[N-(4-pentylphenyl)sulfamoyl]benzoic acid] has an IC50 [1] of 98 ± 3 µM.

For CCCCCCc1ccc(NS(=O)(=O)c2ccc(O)c(C(=O)O)c2)cc1 [Compound 2d, 5-[N-(4-hexylphenyl)sulfamoyl]-2-hydroxybenzoic acid], the IC50 [1] was 77 ± 6 µM, the “Planktonic organisms (not in biofilm) MBC” value [2] was 128 µM and the “Planktonic organisms (not in biofilm) MIC” value [2] was 128 µM. For the same compound, the “Adherent organisms (biofilm) MIC^b” value [3] was 128 µM, the “Adherent organisms (biofilm) MBC^b” value [3] was greater than 128 µM and the “MRSA MBC” value [4] was 128/128. The MBC [4] was 128 µM (≈ 48.3 µg/mL) and the MIC [4] was 128 µM (≈ 48.3 µg/mL).

For CCCCCCCc1ccc(NS(=O)(=O)c2ccc(O)c(C(=O)O)c2)cc1 [Compound 2e, 5-[N-(4-heptylphenyl)sulfamoyl]-2-hydroxybenzoic acid], the IC50 [1] was 28 µM, the “percentage mean absorbance at 490 nm (MTS) versus DMSO” value [5] was “no significant differences in percentage mean absorption” and the Candida albicans MFC [6] was 128 µM. For the same compound, the Candida albicans MIC [6] was 64 µM, the “Planktonic organisms (not in biofilm) MBC” value [2] was 64 µM and the “Planktonic organisms (not in biofilm) MIC” value [2] was 64 µM. The “Adherent organisms (biofilm) MIC^b” value [3] was 64 µM, the “Adherent organisms (biofilm) MBC^b” value [3] was 128 µM and the “VRE MBC” value [7] was 64/64. The “MRSA MBC” value [4] was 64/64, the MBC [4] was 64 µM (≈ 25.1 µg/mL) and the MIC [4] was 64 µM (≈ 25.1 µg/mL). It also gave an MBC [8] of 16 µM (≈ 6.26 µg/mL), an MIC [8] of 16 µM (≈ 6.26 µg/mL) and an MBC ([9]; MRSA / NRS123 / USA400) of 32 µM (≈ 12.5 µg/mL). For the same compound, the MIC ([9]; MRSA / NRS123 / USA400) was 32 µM (≈ 12.5 µg/mL), the MBC ([9]; MRSA / NRS382 / USA100) was 32 µM (≈ 12.5 µg/mL) and the MIC ([9]; MRSA / NRS382 / USA100) was 32 µM (≈ 12.5 µg/mL). The MBC ([9]; MRSA / NRS383 / USA200) was 32 µM (≈ 12.5 µg/mL), the MIC ([9]; MRSA / NRS383 / USA200) was 16 µM (≈ 6.26 µg/mL) and the MBC ([9]; MRSA / NRS384 / USA300) was 32 µM (≈ 12.5 µg/mL). The MIC ([9]; MRSA / NRS384 / USA300) was 32 µM (≈ 12.5 µg/mL), the MBC ([9]; MRSA / NRS385 / USA500) was 16 µM (≈ 6.26 µg/mL) and the MIC ([9]; MRSA / NRS385 / USA500) was 16 µM (≈ 6.26 µg/mL). It also gave an MBC ([9]; MRSA / NRS386 / USA700) of 32 µM (≈ 12.5 µg/mL), an MIC ([9]; MRSA / NRS386 / USA700) of 32 µM (≈ 12.5 µg/mL) and an MBC ([9]; MRSA / NRS387 / USA800) of 32 µM (≈ 12.5 µg/mL). The MIC ([9]; MRSA / NRS387 / USA800) was 16 µM (≈ 6.26 µg/mL), the MBC ([9]; MRSA / NRS483) was 32 µM (≈ 12.5 µg/mL) and the MIC ([9]; MRSA / NRS483) was 16 µM (≈ 6.26 µg/mL). For the same compound, the MBC ([9]; MRSA / NRS484) was 32 µM (≈ 12.5 µg/mL), the MIC ([9]; MRSA / NRS484) was 16 µM (≈ 6.26 µg/mL) and the “Log CFU/worm” value [10] was 0.86 ± 1.03 Log CFU/worm. The “Log Reduction” value [10] was 4.04*, the “Log CFU/worm” value [11] was 1.80 ± 0.10 Log CFU/worm and the “Log Reduction” value [11] was 3.24*.

For CCCCCCCCCCCCc1ccc(NS(=O)(=O)c2ccc(O)c(C(=O)O)c2)cc1 [Compound 2g, 5-[N-(4-dodecylphenyl)sulfamoyl]-2-hydroxybenzoic acid], the IC50 [1] was 5.9 ± 0.5 µM, the “VRE MBC” value [7] was 128/128 and the “MRSA MBC” value [4] was 128/>128. For the same compound, the MBC [4] was 128 µM (≈ 59.1 µg/mL) and the MIC [4] was 128 µM (≈ 59.1 µg/mL).

CCCCCCCCCCCCCCc1ccc(NS(=O)(=O)c2ccc(O)c(C(=O)O)c2)cc1 [Compound 2h, 2-hydroxy-5-[N-(4-tetradecylphenyl)sulfamoyl]benzoic acid] was tested, and the IC50 [1] was 1.9 µM, the “improvement of IC50 over lead compound 1” value [1] was 45 fold and the “MBC, μM” value [4] was “lost bactericidal activity”.

In the case of CC(C)CCCc1ccc(NS(=O)(=O)c2ccc(O)c(C(=O)O)c2)cc1 [Compound 2i, 2-hydroxy-5-[N-(4-(4-methylpentyl)phenyl]sulfamoyl)benzoic acid], the IC50 [1] is reported as 36 ± 4 µM, the “percentage mean absorbance at 490 nm (MTS) versus DMSO” value [5] is reported as “no significant differences in percentage mean absorption” and the “Planktonic organisms (not in biofilm) MBC” value [2] is reported as 128 µM. For the same compound, the “Planktonic organisms (not in biofilm) MIC” value [2] was 128 µM, the “Adherent organisms (biofilm) MIC^b” value [3] was 128 µM and the “Adherent organisms (biofilm) MBC^b” value [3] was 128 µM. The MIC [4] was 64 µM (≈ 24.2 µg/mL).

CC(C)(C)CCc1ccc(NS(=O)(=O)c2ccc(O)c(C(=O)O)c2)cc1 [Compound 2k, 5-[N-(4-(3,3-dimethylbutyl)phenyl)sulfamoyl]-2-hydroxybenzoic acid] was tested, and the “VRE MBC” value [7] was 128/128 and the “MBC, μM” value [4] was “failed to exhibit any activity”.

In the case of O=C(O)c1cc(S(=O)(=O)Nc2ccc(CCC3CCCCC3)cc2)ccc1O [Compound 2l, 5-[N-(4-(2-cyclohexylethyl)phenyl)sulfamoyl]-2-hydroxybenzoic acid], the IC50 [1] is reported as 16.2 ± 10 µM, the “VRE MBC” value [7] is reported as 64/64 and the “MRSA MBC” value [4] is reported as 32/32. It also gave an MBC [4] of 32 µM (≈ 12.9 µg/mL), an MIC [4] of 32 µM (≈ 12.9 µg/mL) and an MBC [8] of 16 µM (≈ 6.46 µg/mL). The MIC [8] was 16 µM (≈ 6.46 µg/mL), the MBC ([9]; MRSA / NRS123 / USA400) was 16 µM (≈ 6.46 µg/mL) and the MIC ([9]; MRSA / NRS123 / USA400) was 16 µM (≈ 6.46 µg/mL). It also gave an MBC ([9]; MRSA / NRS382 / USA100) of 16 µM (≈ 6.46 µg/mL), an MIC ([9]; MRSA / NRS382 / USA100) of 16 µM (≈ 6.46 µg/mL) and an MBC ([9]; MRSA / NRS383 / USA200) of 16 µM (≈ 6.46 µg/mL). For the same compound, the MIC ([9]; MRSA / NRS383 / USA200) was 16 µM (≈ 6.46 µg/mL), the MBC ([9]; MRSA / NRS384 / USA300) was 16 µM (≈ 6.46 µg/mL) and the MIC ([9]; MRSA / NRS384 / USA300) was 16 µM (≈ 6.46 µg/mL). The MBC ([9]; MRSA / NRS385 / USA500) was 16 µM (≈ 6.46 µg/mL), the MIC ([9]; MRSA / NRS385 / USA500) was 16 µM (≈ 6.46 µg/mL) and the MBC ([9]; MRSA / NRS386 / USA700) was 16 µM (≈ 6.46 µg/mL). For the same compound, the MIC ([9]; MRSA / NRS386 / USA700) was 16 µM (≈ 6.46 µg/mL), the MBC ([9]; MRSA / NRS387 / USA800) was 16 µM (≈ 6.46 µg/mL) and the MIC ([9]; MRSA / NRS387 / USA800) was 16 µM (≈ 6.46 µg/mL). The MBC ([9]; MRSA / NRS483) was 16 µM (≈ 6.46 µg/mL), the MIC ([9]; MRSA / NRS483) was 8 µM (≈ 3.23 µg/mL) and the MBC ([9]; MRSA / NRS484) was 16 µM (≈ 6.46 µg/mL). For the same compound, the MIC ([9]; MRSA / NRS484) was 16 µM (≈ 6.46 µg/mL), the “Log CFU/worm” value [10] was 0.43 ± 0.68 Log CFU/worm and the “Log Reduction” value [10] was 4.47*. The “Log CFU/worm” value [11] was 2.20 ± 0.43 Log CFU/worm and the “Log Reduction” value [11] was 2.84*.

With O=C(O)c1cc(S(=O)(=O)Nc2ccc(CCc3ccccc3)cc2)ccc1O [Compound 2m, 2-hydroxy-5-[N-(4-phenethylphenyl)sulfamoyl]benzoic acid] the “MBC, μM” value [4] was “no enzymatic inhibition or bactericidal activity”.

CCCCc1ccc(NS(=O)(=O)c2ccc(OCC(N)=O)c(C(=O)O)c2)cc1 [Compound 3, 5-[N-(4-butylphenyl)sulfamoyl]-2-(carbamoylmethoxy)benzoic acid] was tested, and the “MBC, μM” value [4] was “failed to show any enzymatic inhibition or bactericidal activity”.

CC(=O)NC[C@H]1CN(c2ccc(N3CCOCC3)c(F)c2)C(=O)O1 [Linezolid, linezolid, reference compound] was tested, and the “Adherent organisms (biofilm) MIC^b” value [3] was 4 µM, the “Adherent organisms (biofilm) MBC^b” value [3] was 16 µM and the “Log CFU/worm” value [10] was 1.47 ± 0.06 Log CFU/worm. For the same compound, the “Log Reduction” value [10] was 3.43*.
